# Results from ChEMBL document CHEMBL3882247, “Use of dibenzofuranone derivatives to inhibit kinases” (2013).
# Activity calls are given as the source filed them. No cut-off for these calls is given here.
# How the values were obtained:
# LNCaP [1] = experiment: Cytotoxicity against human LNCAP cells assessed as decrease in cell viability after 24 to 72 hrs by MTT assay; type: functional, cell-based
# [2] = biological target: T1, Casein kinase II (Homo sapiens) (UniProt P67870+P68400+P19784); experiment: Inhibition of CK2 (unknown origin) assessed as residual activity using E-peptide as substrate at 10 uM incubated for 10 mins prior to testing by capillary electrophoretic analysis; type: protein-complex assay
# LNCaP [3] = experiment: Induction of apoptosis in human LNCAP cells assessed as PARP cleavage after 24 to 48 hrs by Western blot analysis; type: functional, cell-based
# LNCaP [4] = experiment: Cytotoxicity against human LNCAP cells assessed as cell viability at 50 uM after 48 hrs by MTT assay; type: functional
# LNCaP [5] = experiment: Cytotoxicity against human LNCAP cells assessed as cell viability at 25 uM after 48 hrs by MTT assay; type: functional
# LNCaP [6] = experiment: Cytotoxicity against human LNCAP cells assessed as cell viability at 25 uM after 24 hrs by MTT assay; type: functional
# LNCaP [7] = experiment: Cytotoxicity against human LNCAP cells assessed as cell viability at 50 uM after 24 hrs by MTT assay; type: functional
# LNCaP [8] = experiment: Cytotoxicity against human LNCAP cells assessed as cell viability at 50 uM after 72 hrs by MTT assay; type: functional
# LNCaP [9] = experiment: Induction of apoptosis in human LNCAP cells assessed as PARP cleavage at 25 to 50 uM after 24 to 48 hrs by Western blot analysis; type: functional, cell-based
# Casein kinase 2 = Casein kinase 2 (Rattus norvegicus, UniProt P19139); experiment: Inhibition of rat liver CK2 using RRRADDSDDDDD as substrate after 10 mins in presence of [gamma-33P]-ATP
# Chain of Casein kinase 2 (P67874 whole entry): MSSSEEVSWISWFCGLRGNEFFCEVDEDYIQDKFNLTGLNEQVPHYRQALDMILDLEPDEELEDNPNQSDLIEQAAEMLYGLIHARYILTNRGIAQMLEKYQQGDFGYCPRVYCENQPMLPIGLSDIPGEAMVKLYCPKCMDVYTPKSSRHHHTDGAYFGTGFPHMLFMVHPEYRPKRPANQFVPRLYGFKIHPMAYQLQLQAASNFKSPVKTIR
# Chain of Casein kinase 2 (P19139 whole entry): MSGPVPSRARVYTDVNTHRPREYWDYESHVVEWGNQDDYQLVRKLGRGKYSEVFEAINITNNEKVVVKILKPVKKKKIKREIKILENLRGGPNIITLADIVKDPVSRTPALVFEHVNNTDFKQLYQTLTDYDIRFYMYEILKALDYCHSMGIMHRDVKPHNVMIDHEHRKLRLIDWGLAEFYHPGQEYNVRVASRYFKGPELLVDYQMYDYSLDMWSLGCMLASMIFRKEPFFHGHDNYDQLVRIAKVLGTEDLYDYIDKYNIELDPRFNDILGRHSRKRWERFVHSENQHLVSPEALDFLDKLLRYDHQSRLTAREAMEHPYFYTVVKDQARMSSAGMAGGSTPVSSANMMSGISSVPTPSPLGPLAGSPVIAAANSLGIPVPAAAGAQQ
# [10] = biological target: T1, Casein kinase II (Homo sapiens); experiment: Inhibition of CK2 in human LNCAP cell lysates after 24 to 48 hrs in presence of [gamma-32P]ATP by radiometric analysis; type: cell-based
smiles,measurement,setting,value
Cc1ccc(N/C=C2\C(=O)CCc3c2oc2c(Cl)c(Cl)c(O)cc32)cc1,Activity,LNCaP [1],Dose-dependent effect
same,Activity,[2],< 4%
same,Activity,LNCaP [3],Dose-dependent effect
Brc1c(Br)c(Br)c2[nH]nnc2c1Br,Activity,LNCaP [4],Active
same,Activity,LNCaP [5],Active
same,Activity,LNCaP [1],Dose-dependent effect
same,Activity,LNCaP [6],Active
same,Activity,LNCaP [7],Active
same,Activity,LNCaP [8],Active
same,Activity,LNCaP [9],Active
O=c1oc2c(O)c(O)cc3c(=O)oc4c(O)c(O)cc1c4c23 [ELLAGIC ACID],IC50,Casein kinase 2,0.04 µM
COc1ccc(/N=C/c2c(O)ccc3c2oc2cc(Cl)c(O)c(Cl)c23)cc1,inhibition,[10],Active
same,Activity,LNCaP [1],Dose-dependent effect
COc1ccc(N/C=C2\C(=O)CCc3c2oc2cc(Cl)c(O)c(Cl)c32)cc1,inhibition,[10],Active
same,Activity,LNCaP [1],Dose-dependent effect
CC(C)=CC(=O)c1oc2c(Cl)c(Cl)c(O)c(C#N)c2c1N,Activity,[2],< 4%
CCOC(=O)c1oc2c(Cl)c(Cl)c(OC(C)=O)c(C#N)c2c1N,Activity,[2],31%
CC(=O)Oc1c(Cl)c(Cl)c2oc(C(=O)C=C(C)C)c(N)c2c1C#N,Activity,[2],7%
